Assay results taken from ChEMBL document CHEMBL6096687, “In Vivo Stability Improvement of Astatobenzene Derivatives by Introducing Neighboring Substituents” (J Med Chem, 2025).

Assays:
[1] = In vivo stability in male ddY mouse thyroid gland assessed as decrease in radioactivity at 37 kBq, iv measured after 10 to 240 mins by autowell-gamma counter analysis; assay type: ADME, organism-based; conditions: time 10-240 min
[2] = Stability in mouse plasma assessed as parent compound remaining measured after 1 hrs by TLC analysis; assay type: ADME, cell-free; conditions: read-out: Stability
[3] = In vivo stability in male ddY mouse stomach assessed as decrease in radioactivity at 37 kBq, iv measured after 10 to 240 mins by autowell-gamma counter analysis; assay type: ADME, organism-based; conditions: time 10-240 min
[4] = Drug accumulation in male ddY mouse kidney at 37 kBq, iv measured after 10 to 240 mins by autowell-gamma counter analysis; assay type: ADME, organism-based; conditions: in vivo, time 10-240 min
[5] = Drug accumulation in male ddY mouse liver at 37 kBq, iv measured after 10 to 240 mins by autowell-gamma counter analysis; assay type: ADME, organism-based; conditions: in vivo, time 10-240 min
[6] = Drug accumulation in male ddY mouse intestine at 37 kBq, iv measured after 10 to 240 mins by autowell-gamma counter analysis; assay type: ADME, organism-based; conditions: in vivo, time 10-240 min
[7] = In vivo metabolic stability in male ddY mouse urine assessed as intact compound at 37 kBq, iv measured after 1 hrs by RP-HPLC analysis; assay type: ADME, organism-based; conditions: read-out: Stability
Albumin = Albumin (Homo sapiens, UniProt P02768); test: Binding affinity to human serum albumin assessed as binding constant by ITC analysis; assay type: ADME; conditions: isolated protein
Albumin, sequence (P02768 whole entry): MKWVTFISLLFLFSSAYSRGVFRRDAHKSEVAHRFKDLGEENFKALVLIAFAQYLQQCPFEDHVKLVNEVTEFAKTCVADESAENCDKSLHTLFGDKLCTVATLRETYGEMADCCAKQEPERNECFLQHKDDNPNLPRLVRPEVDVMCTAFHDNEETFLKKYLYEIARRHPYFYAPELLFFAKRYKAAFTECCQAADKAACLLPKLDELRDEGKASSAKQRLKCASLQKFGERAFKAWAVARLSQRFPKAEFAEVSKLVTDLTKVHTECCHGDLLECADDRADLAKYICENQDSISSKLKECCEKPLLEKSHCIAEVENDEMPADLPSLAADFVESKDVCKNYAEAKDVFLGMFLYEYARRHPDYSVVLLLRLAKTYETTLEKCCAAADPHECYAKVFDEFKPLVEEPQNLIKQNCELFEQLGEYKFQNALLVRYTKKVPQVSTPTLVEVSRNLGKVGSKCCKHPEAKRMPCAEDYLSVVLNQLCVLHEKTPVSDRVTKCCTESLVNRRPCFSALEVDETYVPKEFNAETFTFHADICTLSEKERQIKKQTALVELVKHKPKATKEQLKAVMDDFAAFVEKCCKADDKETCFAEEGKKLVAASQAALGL

Row | Drug uptake [4] | Drug uptake [5] | Drug uptake [6] | Kb (Albumin) [M⁻¹] | SMILES | Stability [1] | remaining at 1 h [2] [%] | Stability [3] | remaining at 1 h [7] [%]
1 | Active | Active | Active | – | O=C(O)CNC(=O)c1cc(CO)c([125I])c(CO)c1 | Stable | 95.8 | Stable | –
2 | Active | – | – | – | O=C(O)CNC(=O)c1ccc([125I])cc1 | Stable | 98.4 | Stable | –
3 | Active | Active | Active | – | CN(C)C(=O)c1cc(C(=O)NCC(=O)O)cc(C(=O)N(C)C)c1[125I] | Stable | 92.7 | Stable | 75.7
4 | Active | Active | Active | – | CN(C)C(=O)c1cc(C(=O)NCC(=O)O)ccc1[125I] | – | 96.9 | – | –
5 | – | – | – | 1000 | O=C(O)CNC(=O)c1ccccc1 [HIPPURIC ACID] | – | – | – | –

More lines, now with the values behind:

Row | SMILES | Drug uptake [4] | Drug uptake [5] | Drug uptake [6] | Kb (Albumin) [M⁻¹] | Stability [1] | remaining at 1 h [2] [%] | Stability [3] | remaining at 1 h [7] [%]
6 | COCOCc1cc(C(=O)NCC(=O)O)cc(COCOC)c1[125I] | – | – | – | – | Stable | 92.9 | Stable | –
7 | COCOCc1cc(C(=O)NCC(=O)O)cc(COCOC)c1[211At] | – | – | – | – | Unstable | 81.5 | Unstable | –
8 | CN(C)C(=O)c1cc(C(=O)NCC(=O)O)ccc1[211At] | – | – | – | – | Unstable | 95.8 | Unstable | –
9 | CN(C)C(=O)c1cc(C(=O)NCC(=O)O)cc(C(=O)N(C)C)c1[211At] | – | Active | Active | – | Stable | 92 | Stable | 86.4
10 | O=C(O)CNC(=O)c1cc(CO)c([211At])c(CO)c1 | – | – | – | – | Unstable | 88.7 | Unstable | –
11 | O=C(O)CNC(=O)c1ccc([211At])cc1 | – | – | – | – | Unstable | 81.4 | Unstable | –
